Results on 1 molecule are retold here after patent publication US9656953B2, “Inhibition of cell proliferation” (University of South Florida, priority 2005, dated 2017).

Assay [1] relates to A549 cells stably expressing sh6. Nature of the assay: BrdU incorporation, A549 Rb shRNA sh6. The class given is cell-based, human. The conditions noted are these: 20 μM, Rb knock down. The protocol:
Proliferation assays. Bromodeoxyuridine (BrdU) labeling kits were obtained from Roche Biochemicals (Indianapolis, Ind.). Cells were plated in poly-D-lysine coated chamber slides at a density of 10,000 cells per well and rendered quiescent by serum starvation for 24 hours. Cells were then re-stimulated with serum in the presence or absence of the indicated drugs for 18 h. S-phase cells were visualized by microscopy and quantitated by counting 3 fields of 100 in quadruplicate.
To further confirm that 3a requires a functional Rb to inhibit tumor cell proliferation, A549 cells (human epithelial lung carcinoma) were stably transfected with two different shRNA constructs (sh6 and sh8) to knock down Rb expression.

The test system of a further assay is A549 cells. The assay can be described thus: Soft agar assay, A549. The class given is cell-based, human. As for the experimental part:
Soft Agar Assay. Soft agar assays were done in triplicate in 12-well plates (Corning, Corning N.Y.). First, the bottom layer of agar (0.6%) was allowed to solidify at room temperature. Next the top layer of agar was (0.3%) was mixed with 5,000 cells per well and the indicated drug. The drugs were added twice weekly in complete media to the agar wells. Colonies were quantified by staining with MTT (3-(4,5-Dimethylthiazol-2-yl)-2,5-diphenyltetrazolium bromide) 1 mg/mL for 1 hour at 37° C.
Experiments were also carried out to examine the effect of 3a in inhibiting the adherence-independent growth of cancer cells in soft agar.

The test system of assay [2] is Human aortic endothelial cells (HAECs). The assay can be described thus: Matrigel angiogenic tubule formation. The class given is cell-based. The conditions noted are these: 20 μM. As for the experimental part:
Matrigel assays. […] A total of 100 μl of thawed Matrigel was added to 96-well tissue culture plates, followed by incubation at 37° C. for 60 minutes to allow polymerization. […] Capillary tube formation assessed by using a Leica DMIL phase contrast microscope.
An experiment was performed to determine whether angiogenic tubule formation could be inhibited by the disclosed compounds.

SMILES strings stand for the structures. “Also recorded” adds a separate entry of the source.

For the molecule `Cl.N=C(N)SCc1ccc(Cl)cc1Cl` [Compound 3a], the “S-phase entry (BrdU), A549 sh6” value in assay [1] is given as “does not inhibit the proliferation; also recorded: no effect”. Besides, the “adherence-independent growth in soft agar, A549” value with A549 cells is “significantly inhibited the growth”. In assay [2], the “angiogenic tubule formation in matrigel” value is “inhibit angiogenic tubule formation; also recorded: significantly inhibited the angiogenic tubule formation”.
